Series [1] is described as follows: Cytotoxicity assay (LTR-luc luciferase reporter). The class given is cell-based, human. The following applies: human; Huh-7 LTR-luc cells, luciferase activity; read-out: CC50 (concentration of drug inhibiting cellular growth by 50%). The procedure:
(§1) The anti-HCV activity and cytotoxicity of compounds disclosed herein were evaluated following patent method (WO/2007/027248).
(§2) The anti-HCV activity and toxicity of the exemplary compounds can be tested in two biological assays—a cell-based HCV replicon assay and cytotoxicity assay (WO 2007/027248).
(§3) II. Cytotoxicity Assay A Huh-7 cell line carrying a luciferase reporter gene (driven by a HIV LTR promoter) stably integrated into the chromosome was used to analyze the cytotoxic effect of the selected compounds. This cell line (LTR-luc) was maintained in DMEM medium with 10% FBS. Design of the cytotoxicity assay was similar to that of the HCV replicon assay. Reduction of luciferase activity in the treated cells correlated with the cytotoxic effect of the test compound and was used to calculate the CC50 value (concentration that inhibited cell growth by 50%).
For orientation: In a reporter assay the amount or activity of a reporter protein is the signal.

In series [2] the test system is HCV subgenomic genotype 1b replicon. As to the kind of experiment: cell-based HCV replicon assay (luciferase reporter). Set-up: species or system hepatitis C virus (HCV). The following applies: for EC50: Hepatitis C virus, Huh-7 cells, genotype 1b replicon luc-ubi-neo, 48 h incubation, luciferase activity, read-out: EC50 (concentration of drug inhibiting HCV by 50%); for anti-HCV activity (in words): replicon assay, genotype 1b. Here is the method: as §1, §2
A human hepatoma cell line (Huh-7) containing replicating HCV subgenomic genotype 1b replicon with a luciferase reporter gene (luc-ubi-neo) was used to evaluate anti-HCV activity of the compounds. In this assay, the level of luciferase signal correlates with the viral RNA replication directly. The HCV replicon-reporter cell line (NK/luc-ubi-neo) was cultured in DMEM medium supplemented with 10% fetal bovine serum and 0.5 mg/ml Geneticin (G418). Cells were maintained in a subconfluent state to ensure high levels of HCV replicon RNA synthesis.
To evaluate the antiviral activity of compounds, serial dilutions were prepared with concentrations ranging from 0.14 to 300 μM. Diluted compounds were transferred to a 96-well plate followed by the addition of replicon cells (6000 cells per well). Cells were incubated with the compounds for 48 h after which luciferase activity was measured. Reduction of luciferase signal reflected the decrease of HCV replicon RNA in the treated cells and used to determine the EC50 value (concentration which yielded a 50% reduction in luciferase activity).

Series [3] has as its system Huh-7 cell line (LTR-luc). Briefly: Cytotoxicity assay (LTR-luc luciferase reporter). The following applies: in vitro. The class given is cell-based, human. Here is the method:
as §1, §2, §3

The structures appear in SMILES notation. Some results are limits rather than exact numbers.

With `COc1nc(N)nc2c1ncn2C1OC(CO)C[C@@]1(C)F` (some centres unmarked) [Compound 11], the CC50 in series [1] is more than 100 µM. Also, the EC50 in series [2] is more than 100000 nM.
In the case of `COc1nc(N)nc2c1ncn2C1OC(CO[P@@](=O)(N[C@@H](C)C(=O)OC2CCCC2)Oc2ccccc2)C[C@@]1(C)F` (some centres unmarked) [Compound 25], the CC50 in series [1] was more than 100 µM. Moreover, the “cytotoxicity (in words)” value in series [3] was “without significant cytotoxicity”. Further, in series [2], the EC50 was found to be 580 nM and the “anti-HCV activity (in words)” value is recorded as “potent anti-HCV activity”.
The corresponding values for `COC(=O)[C@H](C)NP(=O)(OCC1C[C@@](C)(F)C(n2cnc3c(OC)nc(N)nc32)O1)Oc1ccccc1` (some centres unmarked) [Compound 18] are more than 100 µM, “without significant cytotoxicity”, less than 1000 nM and “potent anti-HCV activity”.
Regarding `COc1nc(N)nc2c1ncn2C1OC(COP(=O)(NCc2ccccc2)OCc2ccccc2C)C[C@@]1(C)F` (some centres unmarked) [Compound 17], the CC50 in series [1] is 52.2 µM. Besides, in series [3], the “cytotoxicity (in words)” value is listed as “without significant cytotoxicity”. Besides, in series [2], the EC50 is less than 1000 nM and the “anti-HCV activity (in words)” value is given as “potent anti-HCV activity”.

For the origin of these results see patent US20140315850A1, “2',3'-Dideoxy-2'-alpha-Fluoro-2'-beta-C-Methylnucleosides and Prodrugs Thereof” (Nanjing Molecular Research, Inc., priority 2011, published 2014).
